No end group written: not given here.
Key:
in vitro [1] = assay type: cell-based, human; conditions: human, human red blood cells, pH 7, hemolytic assay, concentration at 50% hemolysis, 1 hour at 37° C.; read-out: LD50
Description: This hemolytic assay is based upon that presented in Journal of Peptide Research 53: 82-90 (1999). […] All procedures were performed according to safety protocols pertaining to the handling and disposal of human body fluids.
Red blood cells (RBCs) were washed three times with PBS (35 mM phosphate buffer 0.15 M NaCl, pH 7.0). RBCs suspended in PBS (0.4% (v/v); about 10 ml per 15 peptides) were prepared. Suspensions (100 μl) were aliquoted to each sample and control tube. Serially diluted peptide solutions (100 μl) were pipetted into the sample tubes. Negative control tubes contained 100 μl PBS; positive control tubes contained 100 μl 1% Triton-X100 detergent. All tubes were incubated for 1 hour at 37° C. The tubes were removed from the incubator and centrifuged at 1000 g for 5 minutes. Supernatant (100 μl) was pipetted to a 96-well polyvinyl chloride plate. The absorbance at 414 nm (A414) was measured, and used to calculate the percent hemolysis according to the following formula. [formula]

[2] = system: Staphylococcus aureus ATCC 6538; assay: Antimicrobial assay I, MIC by OD measurement; assay type: cell-based; conditions: 37° C. for 24 hours, absorbance 620 nm
Source text: (§1) The data for the following antimicrobial assay of the peptides have been obtained by making OD measurements in in vitro cell culture experiments with and without added peptide. The protocol used is as follows.
(§2) Cell lines included Staphylococcus aureus ATCC 6538 or 25923, Pseudomonas aeruginosa ATCC 9027 or 27853. Medium used were Antibiotic Medium 3 (Difco), Antibiotic Medium 2 (Difco), and 0.85% saline. Controls used were physiological saline, and gentamycin at 50, 25, 10, 5, 1, and 0.1 ppm.
(§3) Absorbance was read at 620 nm after shaking to resuspend cells.
(§4) Staph6538 is Staphylococcus aureus ATCC accession number 6538; paerug9027 is Pseudomonas aeruginosa ATCC accession number 9027, yeast is Saccharomyces cerevisiae.

[3] = system: Pseudomonas aeruginosa ATCC 9027; assay: Antimicrobial assay I, MIC by OD measurement; assay type: cell-based; conditions: 37° C. for 24 hours, absorbance 620 nm
Source text: as §1, §2, §3, §4

[4] = system: yeast (Saccharomyces cerevisiae); assay: Antimicrobial assay I, yeast assay in RPMI 1640; assay type: cell-based; conditions: RPMI 1640 media
Description: as §1, §3
The yeast assay was performed in RPMI 1640 media (pH 7.0 at 25° C.).
as §4

WI38 = conditions: MTT, 24 hours with peptide; for WI38 LD50: normal fibroblast line; for LD50 WI38: WI38 normal lung fibroblast line
in vitro [5] = conditions: human, WI38 normal lung fibroblast cells, LD50 WI38, WI38 normal lung fibroblast line, MTT, 24 hours with peptide
BMKC = assay: Anti-cancer assay, MTT, LD50; assay type: cell-based; conditions: BMKC cloned melanoma line, 24 hours with peptide
Source text: (§5) Numbers are LD50 values (μg/mL).

PC3 = assay: Anti-cancer assay, MTT, LD50; assay type: cell-based; conditions: 24 hours with peptide, prostate adenocarcinoma
Source text: as §5

MCF7 = assay: Anti-cancer assay, MTT, LD50; assay type: cell-based; conditions: MCF7 breast adenocarcinoma line, MTT, 24 hours with peptide
Source text: as §5

HeLaS3 = assay: Anti-cancer assay, MTT, LD50; assay type: cell-based; conditions: 24 hours with peptide, cervical carcinoma
Source text: as §5

SW480 = assay: Anti-cancer assay, MTT, LD50; assay type: cell-based; conditions: SW480 colon adenocarcinoma line, 24 hours with peptide
Source text: as §5

H1299 = assay: Anti-cancer assay, MTT, LD50; assay type: cell-based; conditions: 24 hours with peptide, lung large cell carcinoma
Source text: as §5

Compound | HC50 at 1 h (in vitro [1]) [µg/mL] | staph6538 (MIC) [2] | paerug9027 (MIC) [3] | yeast (MIC or MFC) [4] | WI38 LD50 (WI38) | CC50 at 24 h (in vitro [5]) [µg/mL] | LD50 BMKC (BMKC) | PC3 LD50 (PC3) | LD50 MCF7 (MCF7) | HeLaS3 LD50 (HeLaS3) | LD50 SW480 (SW480) | H1299 LD50 (H1299) | LD50 WI38 (WI38)
FALLKALKKAL-NH2 [P171, FALLKALKKAL-NH2] | 550 | 25 µg/mL | 50 µg/mL | 100 µg/mL | 615 µg/mL | 615 | 600 µg/mL | 600 µg/mL | 305 µg/mL | 820 µg/mL | 770 µg/mL | 540 µg/mL | 
FALALKA-NH2 [P141, FALALKA-NH2] | 900 | 15 µg/mL | 50 µg/mL | 200 µg/mL | 420 µg/mL | 420 | 465 µg/mL |  | 430 µg/mL | > (> indicates greater than 1000) | 560 µg/mL | > (> indicates greater than 1000) | 
WALAL-NH2 [P184, WALAL-NH2] | 850 | 25 µg/mL | 100 µg/mL | 100 µg/mL | 800 µg/mL | 800 | 600 µg/mL | 570 µg/mL | 260 µg/mL | 302 µg/mL | 440 µg/mL | 370 µg/mL | 
CC[C@H](C)[C@H](NC(=O)CN)C(=O)NCC(=O)N[C@@H](C)C(=O)N[C@H](C(=O)N[C@@H](CC(C)C)C(=O)N[C@@H](CCCCN)C(=O)N[C@H](C(=O)N[C@@H](CC(C)C)C(=O)N[C@H](C(=O)N[C@H](C(=O)NCC(=O)N[C@@H](CC(C)C)C(=O)N1CCC[C@H]1C(=O)N[C@@H](C)C(=O)N[C@@H](CC(C)C)C(=O)N[C@H](C(=O)N[C@@H](CO)C(=O)N[C@@H](Cc1c[nH]c2ccccc12)C(=O)N[C@H](C(=O)N[C@@H](CCCCN)C(=O)N[C@@H](CCCNC(=N)N)C(=O)N[C@@H](CCCCN)C(=O)N[C@@H](CCCNC(=N)N)C(=O)N[C@@H](CCC(N)=O)C(=O)N[C@@H](CCC(N)=O)C(N)=O)[C@@H](C)CC)[C@@H](C)CC)[C@@H](C)O)[C@@H](C)O)C(C)C)C(C)C [P108, reference compound] |  | 5 µg/mL | > (> indicates greater than 200 μg/mL) | 25 µg/mL |  |  |  |  |  |  |  |  | 
FAKKLAKLAKKLLAL-NH2 [P38, FAKKLAKLAKKLLAL-NH2] | 350 | 5 µg/mL | 50 µg/mL | 50 µg/mL | 12 µg/mL | 12 | 21 µg/mL | 10 µg/mL | 17 µg/mL | 35 µg/mL | 13 µg/mL | 33 µg/mL | 
KWKLFKKALKKLKKALKKAL-NH2 [P104] | 70 | 10 µg/mL | 10 µg/mL | 200 µg/mL | 24 µg/mL | 24 | 100 µg/mL | 18 µg/mL | 11 µg/mL | 130 µg/mL | 54 µg/mL | 52 µg/mL | 
VAKLLAKLAKKVL-NH2 [P154] | 450 | 100 µg/mL | 100 µg/mL | 50 µg/mL | 600 µg/mL | 600 | 330 µg/mL | 640 µg/mL | 315 µg/mL | > (> indicates greater than 1000) | 750 µg/mL | 400 µg/mL | 
KLLKLLLKLYKKLLKLL-OH [P156] | 10 | 15 µg/mL | > (> indicates greater than 200 μg/mL) | > (> indicates greater than 200 μg/mL) | 230 µg/mL | 230 | 520 µg/mL | 260 µg/mL | 135 µg/mL | > (> indicates greater than 1000) | 345 µg/mL |  | 
VAKLLAKLAKKLL-NH2 [P48] | 200 | 5 µg/mL | 5 µg/mL | 25 µg/mL | 41 µg/mL | 41 | 43 µg/mL | 32 µg/mL | 23 µg/mL | 44 µg/mL | 47 µg/mL | 17 µg/mL | 
FALLKL-NH2 [P168, FALLKL-NH2] | 600 | 50 µg/mL | 100 µg/mL | > (> indicates greater than 200 μg/mL) | > (> indicates greater than 1000) |  | 590 µg/mL | > (> indicates greater than 1000) | 630 µg/mL | > (> indicates greater than 1000) | > (> indicates greater than 1000) | > (> indicates greater than 1000) | > (> indicates greater than 1000)
FALALKALKKALKKLKKALKKAL-OH [P1, reference compound] | 100 | 5 µg/mL | 10 µg/mL | > (> indicates greater than 200 μg/mL) |  |  |  |  |  |  |  |  | 
ILPWKWPWWPWRR-COOH [P91, reference compound] |  | 10 µg/mL | > (> indicates greater than 200 μg/mL) | > (> indicates greater than 200 μg/mL) |  |  | 180 µg/mL | 31 µg/mL | 12 µg/mL | 20 µg/mL | 30 µg/mL | 64 µg/mL | 
FAFGKGIGKIGKKGL-NH2 [P138] | 20 | > (> indicates greater than 200 μg/mL) | > (> indicates greater than 200 μg/mL) | > (> indicates greater than 200 μg/mL) | > (> indicates greater than 1000) |  | > (> indicates greater than 1000) | > (> indicates greater than 1000) | > (> indicates greater than 1000) | > (> indicates greater than 1000) | > (> indicates greater than 1000) | > (> indicates greater than 1000) | > (> indicates greater than 1000)
FAKKLAKKLKKLAKKLIGAVLKV-OH [P99] | 25 | 100 µg/mL | > (> indicates greater than 200 μg/mL) | > (> indicates greater than 200 μg/mL) |  |  |  |  |  |  |  |  | 
KWKLFKKIGAVLKVL-NH2 [P53, reference compound] | 20 | 5 µg/mL | 15 µg/mL | 50 µg/mL | 32 µg/mL | 32 | 40 µg/mL | 40 µg/mL | 45 µg/mL | 30 µg/mL |  | 65 µg/mL | 

— patent publication US20050209157A1, “Short bioactive peptides and methods for their use” (priority 2001, published 2005)
